Among the data in ChEMBL document CHEMBL1127122, “Neurotensin receptor binding and antinociceptive activity for lipophilic N-amido neurotensin(913) analogs” (Bioorg Med Chem Lett, 1993) are ED50 and Ki values, retold here.

Residues, ends and D or L forms follow the SMILES beside them. *: point of attachment. Adamantane1carbonyl = O=C(C12CC3CC(CC(C3)C1)C2)* A value given as a limit tells only on which side of the number the result lay.

Assay [1] concerns Mus musculus. As to the kind of experiment: Analgesic activity of i.v. administered compound in fasted male mice at 5 min. interval was determined using phenylquinone writhing assay. Format: functional. To be noted: iv.
Assay [2] has as its system Mus musculus. In words: Analgesic activity in fasted male mice in phenylquinone writhing assay 10 min after i.c.v. administration. It is filed as functional.
The target of the next assay is Mu-type opioid receptor (Cavia porcellus, UniProt P97266). In words: Compound was evaluated for binding affinity against mu receptor by opioid receptor binding assay: Inactive.
Sequence of Mu-type opioid receptor (P97266 whole entry): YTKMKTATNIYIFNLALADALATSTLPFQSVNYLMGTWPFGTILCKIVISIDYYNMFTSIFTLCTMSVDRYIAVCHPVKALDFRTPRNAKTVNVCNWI
The test system of assay [3] is Mus musculus. As to the kind of experiment: Analgesic activity of i.v. administered compound in fasted male mice at 10 min. interval was determined using phenylquinone writhing assay. It is filed as functional. To be noted: iv.
The subject of assay [4] is Mus musculus. In words: Analgesic activity in fasted male mice in phenylquinone writhing assay 5 min after i.c.v. administration. It is filed as functional.
Assay [5] has as its target Kappa-type opioid receptor (Cavia porcellus, UniProt P41144). As to the kind of experiment: Compound was evaluated for binding affinity against Opioid receptor kappa 1 by opioid receptor binding assay: Inactive.
The subject of assay [6] is Mus musculus. As to the kind of experiment: Analgesic activity in fasted male mice in phenylquinone writhing assay 40 min after i.c.v. administration. Format: functional.

Sequence of Kappa-type opioid receptor (P41144 whole entry): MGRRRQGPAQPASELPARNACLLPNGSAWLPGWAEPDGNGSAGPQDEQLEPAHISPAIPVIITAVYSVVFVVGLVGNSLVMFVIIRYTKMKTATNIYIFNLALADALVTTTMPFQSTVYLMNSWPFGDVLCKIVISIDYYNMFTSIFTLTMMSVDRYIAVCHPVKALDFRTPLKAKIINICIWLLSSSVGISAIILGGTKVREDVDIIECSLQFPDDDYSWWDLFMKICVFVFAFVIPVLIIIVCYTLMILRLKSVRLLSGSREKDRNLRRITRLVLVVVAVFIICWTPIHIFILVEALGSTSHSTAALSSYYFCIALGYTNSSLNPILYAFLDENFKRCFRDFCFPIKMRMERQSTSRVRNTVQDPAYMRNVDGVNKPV

For `CC[C@H](C)[C@H](NC(=O)[C@H](Cc1ccc(O)cc1)NC(=O)[C@@H]1CCCN1C(=O)[C@H](CCCCN)NC(=O)C12CC3CC(CC(C3)C1)C2)C(=O)N[C@@H](CC(C)C)C(=O)O` (Adamantane1carbonyl-KPYIL-OH), the ED50 was 2.2 mg/kg with Mus musculus [1]; 0.22 ug mouse-1 with Mus musculus [2]; 2.8 mg/kg in the assay with Mus musculus [3]; 0.15 ug mouse-1 in the assay with Mus musculus [4]; 0.71 ug mouse-1 in the assay with Mus musculus [6]. For the same compound, the Ki (at Mu-type opioid receptor; in assay [5]) was more than 10 µM each time.
